Measured values: ChEMBL document CHEMBL1926585, “Triterpenoids with rare carbon skeletons from Salvia hydrangea: antiprotozoal activity and absolute configurations” (J Nat Prod, 2011)

Key:
[1] = test system: Trypanosoma brucei rhodesiense; assay: Antitrypanosomal activity against Trypanosoma brucei rhodesiense STIB900; assay type: functional, organism-based
[2] = Selectivity index, ratio of IC50 for rat L6 cells to IC50 for Plasmodium falciparum K1; assay type: toxicity, cell-based; conditions: L6 cells versus Plasmodium falciparum K1, read-out: Ratio IC50
[3] = Selectivity index, ratio of IC50 for rat L6 cells to IC50 for Trypanosoma brucei rhodesiense STIB900; assay type: toxicity, cell-based; conditions: L6 cells versus Trypanosoma brucei rhodesiense STIB900, read-out: Ratio IC50
L6 = assay: Cytotoxicity against rat L6 cells; assay type: cell-based
Plasmodium falciparum = assay: Antiplasmodial activity against Plasmodium falciparum K1; assay type: functional, organism-based

IC50 [1] | IC50 (Plasmodium falciparum) | Compound | selectivity ratio [2] | selectivity ratio [3] | IC50 (L6)
15.9 µM | 0.18 µM | CC1=CC(=O)[C@@]23CC[C@@H]4C(C)(C)CCC[C@@]45C[C@]24[C@@H]1C[C@H]1C(C)(C)OC(=C(C(C)C)C3=O)[C@]14O5 [PEROVSKONE B] | 69.6 | 0.78 | 5.77 µM
4.33 µM | 1.43 µM | C=CC1=C[C@@H]2[C@@H]3[C@]4(C(C)C)C(=O)[C@]5(CC[C@H]6C(C)(C)CCC[C@]67C[C@]25[C@@](OC[C@@]3(C)O)(O7)C4=O)C1 [SALVADIONE C] | 86.6 | 43.2 | > 90 µM
